In patent US8362052B2, “Isoindolin-1-one derivative” (MSD K.K., priority 2009, dated 2013):

Target: T1, human GPR120 (Homo sapiens, UniProt Q5NUL3)
T1 construct: expressed in transfected cells
T1 sequence (Q5NUL3 1-361): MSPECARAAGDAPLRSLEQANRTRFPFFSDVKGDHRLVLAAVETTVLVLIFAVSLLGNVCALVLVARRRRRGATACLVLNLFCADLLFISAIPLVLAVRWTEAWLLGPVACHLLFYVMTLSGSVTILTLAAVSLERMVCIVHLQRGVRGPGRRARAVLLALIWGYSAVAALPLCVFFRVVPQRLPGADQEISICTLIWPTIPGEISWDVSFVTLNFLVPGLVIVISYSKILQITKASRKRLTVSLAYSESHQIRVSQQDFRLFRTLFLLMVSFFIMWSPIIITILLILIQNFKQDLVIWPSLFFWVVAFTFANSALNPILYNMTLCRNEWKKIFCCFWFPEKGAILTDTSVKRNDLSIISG
Test: Measurement of intracellular calcium concentration (FLIPR), GPR120 agonist action
Assay type: cell-based
Conditions: human GPR120 expression CHO cells, Fluo-4 AM
Text: Primers were synthesized in the domains on the opposite sides of the base sequences of the ORFs of the known GPCR and GPR120 in GenBank Accession NOs. NM 181745 (human) and NM 181748 (mouse), and the genes were cloned by RT-PCR. The base sequences of the primers used are described below. The restriction enzymes, BamHI and EcoRI, recognition sites were introduced for subcloning, respectively.
Using Lipofectamine 2000 (Invitrogen), cDNA of GPR120 receptor was transfected into CHO/NFAT-BLA cells, and drug-resistant cells were isolated to obtain GPR120 stable expression strains. The GPR120-expressed CHO cells were cultured in DMEM/F12 medium containing 10% fetal bovine serum, 100 units/ml penicillin, 0.1 mg/ml streptomycin sulfate, 250 μg/ml Zeocin, 500 μg/mL Geneticin and 15 mM HEPES.
On the day before the measurement day, 4 μM Fluo-4 AM (fluorescence calcium indicator reagent) was incubated to be introduced into the human GPR120 expression CHO cells plated at 20000 cells per well of a 96-well black plate (ViewPlate; Packard) in the presence of 2.5 mM probenecid in a CO2 incubator for 1 hour. […] Variations in the intracellular calcium concentration were measured by Fluorescence Imaging Plate Reader (FLIPR; Molecular Devices) to examine the agonist action, and EC50 values were calculated.

Work on O=C1c2ccccc2CN1c1cc(F)cc(Oc2cccnc2)c1 [Example 1, 2-[3-fluoro-5-(pyridin-3-yloxy)phenyl]isoindolin-1-one] yielded an EC50 of 850 nM.

O=S1(=O)c2ccccc2CN1c1cc(F)cc(Oc2cccnc2)c1 [Example 2, 2-[3-fluoro-5-(pyridin-3-yloxy)phenyl]-2,3-dihydro-1,2-benzisothiazol-1,1-dioxide] was tested, and the EC50 was 180 nM.
